Assay results from paper PMC6339850 (ACS chemical neuroscience, 2018).
Like-named read-outs stand apart in the source and are kept apart here. Values belong to the compound of their own block, whether it stands above or below them. Bridge positions count the residues as written; N and C are the ends. Square brackets hold non-standard residues; d marks the D form. Dap = NC[C@H](N)C(=O)O

Experiments:
[1] = biological target: T1, mouse MC1R (Mus musculus, UniProt Q01727); assay: cell-based
[2] = system: MC1R; conditions: read-out: MC1R agonist potency, cited from earlier work
[3] = biological target: T2, mouse MC3R (Mus musculus, UniProt P33033); conditions: for mMC3R percent maximal stimulatory response at 100 μM: 100000.0; for MC3R activity in words: agonist (up to 100 μM) and antagonist activity at the concentrations assayed
[4] = biological target: T3, mouse MC5R (Mus musculus, UniProt P41149); conditions: for MC5R activity in words: up to 100 μM; for mMC5R inverse agonist, percent change from basal at 100 μM / mMC5R percent maximal stimulatory response at 100 μM: 100000.0
[5] = biological target: T4, mouse MC4R (Mus musculus, UniProt P56450); assay: cAMP AlphaScreen antagonist assay; conditions: highest assayed concentrations
[6] = biological target: mouse melanocortin-3 receptor (mouse) (UniProt P33033)
[7] = biological target: mouse melanocortin-4 receptor (mouse) (UniProt P56450)
[8] = biological target: T2, mouse MC3R; assay: cell-based
[9] = biological target: T2, mouse MC3R; assay: cAMP AlphaScreen antagonist assay
[10] = biological target: mouse melanocortin-5 receptor (mouse) (UniProt P41149)
[11] = biological target: T1, mouse MC1R; conditions: for MC1R potency increase compared to the starting ligand 2: agonist potency relative to 2; for mMC1R percent maximal stimulatory response at 100 μM: 100000.0
[12] = biological target: T3, mouse MC5R; assay: cell-based
[13] = biological target: T4, mouse MC4R; assay: cAMP AlphaScreen agonist assay, HEK293 cells stably expressing mouse MC4R; conditions: agonist (up to 100 μM) and antagonist activity at the concentrations assayed

T4 sequence (P56450 whole entry): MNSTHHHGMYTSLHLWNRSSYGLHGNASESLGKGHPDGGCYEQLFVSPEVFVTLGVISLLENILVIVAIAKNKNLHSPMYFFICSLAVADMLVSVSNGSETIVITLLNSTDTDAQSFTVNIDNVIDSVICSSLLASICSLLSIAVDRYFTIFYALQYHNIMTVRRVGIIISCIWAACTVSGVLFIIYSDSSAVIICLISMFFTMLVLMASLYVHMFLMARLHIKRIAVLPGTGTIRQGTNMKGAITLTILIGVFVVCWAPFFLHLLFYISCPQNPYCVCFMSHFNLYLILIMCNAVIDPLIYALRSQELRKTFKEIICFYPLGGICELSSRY
Chain of mouse melanocortin-4 receptor (mouse) (P56450 whole entry): as above
T1 sequence (Q01727 whole entry): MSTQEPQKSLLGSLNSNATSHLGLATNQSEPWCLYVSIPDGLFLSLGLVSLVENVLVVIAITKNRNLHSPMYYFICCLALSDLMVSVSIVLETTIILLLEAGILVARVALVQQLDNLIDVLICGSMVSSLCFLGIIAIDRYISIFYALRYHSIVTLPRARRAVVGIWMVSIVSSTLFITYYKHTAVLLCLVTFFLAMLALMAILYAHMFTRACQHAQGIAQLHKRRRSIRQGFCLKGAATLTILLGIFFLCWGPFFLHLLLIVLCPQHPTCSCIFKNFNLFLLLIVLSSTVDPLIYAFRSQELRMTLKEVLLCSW
T2 sequence (P33033 whole entry): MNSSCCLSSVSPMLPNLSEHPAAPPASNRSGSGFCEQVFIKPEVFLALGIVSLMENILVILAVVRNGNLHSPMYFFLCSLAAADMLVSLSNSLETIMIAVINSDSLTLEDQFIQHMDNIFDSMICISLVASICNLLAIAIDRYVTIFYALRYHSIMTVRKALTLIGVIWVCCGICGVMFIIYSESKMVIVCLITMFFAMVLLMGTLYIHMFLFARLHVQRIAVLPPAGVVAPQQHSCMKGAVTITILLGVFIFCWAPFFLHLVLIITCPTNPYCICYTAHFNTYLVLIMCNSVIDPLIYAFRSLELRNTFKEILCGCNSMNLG
Chain of mouse melanocortin-3 receptor (mouse) (P33033 whole entry): as above
Chain of mouse melanocortin-5 receptor (mouse) (P41149 whole entry): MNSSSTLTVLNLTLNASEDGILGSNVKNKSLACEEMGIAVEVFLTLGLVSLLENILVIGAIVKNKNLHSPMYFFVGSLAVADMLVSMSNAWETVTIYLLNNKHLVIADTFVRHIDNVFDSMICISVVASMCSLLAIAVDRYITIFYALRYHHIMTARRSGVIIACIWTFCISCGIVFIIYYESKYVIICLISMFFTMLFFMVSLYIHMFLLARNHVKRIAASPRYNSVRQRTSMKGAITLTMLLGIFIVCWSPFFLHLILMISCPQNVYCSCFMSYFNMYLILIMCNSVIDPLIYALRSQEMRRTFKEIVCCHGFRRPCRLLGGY
T3 sequence (P41149 whole entry): as above

Compound: H-Tyr-c[Cys-Arg-Phe-Phe-Asn-Ala-Phe-Cys]-Tyr-OH
EC50 ([2]; previously reported ref 33): 2890 nM

Compound: C[C@@H]1NC(=O)[C@H](CN)NC(=O)[C@H](Cc2ccccc2)NC(=O)[C@@H](Cc2ccccc2)NC(=O)[C@@H](CCCNC(=N)N)NC(=O)[C@@H]2CCCN2C(=O)[C@H]2CCCN2C(=O)[C@H](Cc2ccccc2)NC1=O [Peptide 13, c[Pro-DArg-DPhe-Phe-Dap-Ala-Phe-DPro]]
mMC5R inverse agonist, percent change from basal at 100 μM [4]: 30%
MC5R activity in words [4]: apparent inverse agonist activity
EC50 [1]: 800 nM
EC50 [8]: > 100000 nM
Kb [9]: 1000 nM

Compound: C[C@@H]1NC(=O)[C@H](CN)NC(=O)[C@@H](Cc2ccccc2)NC(=O)[C@@H](Cc2ccccc2)NC(=O)[C@@H](CCCNC(=N)N)NC(=O)[C@@H]2CCCN2C(=O)[C@H]2CCCN2C(=O)[C@H](Cc2ccccc2)NC1=O [Peptide 16, c[Pro-DArg-DPhe-DPhe-Dap-Ala-Phe-DPro]]
MC3R activity in words [3]: no activity
mMC5R inverse agonist, percent change from basal at 100 μM [4]: 15%
MC5R activity in words [4]: apparent inverse agonist activity
EC50 [1]: 2200 nM
EC50 [8]: > 100000 nM
Kb [9]: > 3160 nM

Compound: C[C@@H]1NC(=O)[C@H](CN)NC(=O)[C@@H](Cc2ccccc2)NC(=O)[C@@H](Cc2ccccc2)NC(=O)[C@H](CCCNC(=N)N)NC(=O)[C@@H]2CCCN2C(=O)[C@H]2CCCN2C(=O)[C@H](Cc2ccccc2)NC1=O [Peptide 15, c[Pro-Arg-DPhe-DPhe-Dap-Ala-Phe-DPro]]
MC1R potency increase compared to the starting ligand 2 [11]: > 1,000 fold
MC5R activity in words [4]: no activity was observed
EC50 [1]: 700 ± 300 nM
EC50 [8]: > 100000 nM
EC50 [12]: > 100000 nM
Kb [9]: 2000 nM

Compound: C[C@@H]1NC(=O)[C@H](CC(N)=O)NC(=O)[C@@H](Cc2ccccc2)NC(=O)[C@H](Cc2ccccc2)NC(=O)[C@H](CCCNC(=N)N)NC(=O)[C@@H]2CCCN2C(=O)[C@H]2CCCN2C(=O)[C@H](Cc2ccccc2)NC1=O [Peptide 5, c[Pro-Arg-Phe-DPhe-Asn-Ala-Phe-DPro]]
mMC1R percent maximal stimulatory response at 100 μM [11]: 50%
MC4R activity in words [13]: loss of agonist and antagonist activities

Compound: H-Tyr-c[Dap-Arg-Phe-Phe-Asn-Ala-Phe-Asp]-Tyr-NH2 (Y[Dap]RFFNAFDY-NH2; lactam N-9; SMILES C[C@@H]1NC(=O)[C@H](CC(N)=O)NC(=O)[C@H](Cc2ccccc2)NC(=O)[C@H](Cc2ccccc2)NC(=O)[C@H](CCCNC(=N)N)NC(=O)[C@H](CN)NC(=O)[C@H](Cc2ccc(O)cc2)NC(=O)C[C@@H](C(=O)N[C@@H](Cc2ccc(O)cc2)C(N)=O)NC(=O)[C@H](Cc2ccccc2)NC1=O)
EC50 ([2]; previously reported ref 34): 28100 nM

Compound: C[C@@H]1NC(=O)[C@H](CN)NC(=O)[C@H](Cc2ccccc2)NC(=O)[C@H](Cc2ccccc2)NC(=O)[C@@H](CCCNC(=N)N)NC(=O)[C@@H]2CCCN2C(=O)[C@H]2CCCN2C(=O)[C@H](Cc2ccccc2)NC1=O [Peptide 10, c[Pro-DArg-Phe-Phe-Dap-Ala-Phe-DPro]]
mMC1R percent maximal stimulatory response at 100 μM [11]: 25%
mMC3R percent maximal stimulatory response at 100 μM [3]: 25%
MC5R activity in words [4]: no activity was observed
EC50 [12]: > 100000 nM
Kb [9]: 2000 nM

Compound: C[C@@H]1NC(=O)[C@H](CN)NC(=O)[C@H](Cc2ccccc2)NC(=O)[C@@H](Cc2ccccc2)NC(=O)[C@H](CCCNC(=N)N)NC(=O)[C@@H]2CCCN2C(=O)[C@H]2CCCN2C(=O)[C@H](Cc2ccccc2)NC1=O [Peptide 11, c[Pro-Arg-DPhe-Phe-Dap-Ala-Phe-DPro]]
MC1R potency increase compared to the starting ligand 2 [11]: > 1,000 fold
MC3R activity in words [3]: No agonist activity was observed
MC5R activity in words [4]: No agonist activity was observed
EC50 [1]: 230 ± 80 nM
EC50 [8]: > 100000 nM
EC50 [12]: > 100000 nM
Kb [9]: 1200 nM

Compound: C[C@@H]1NC(=O)[C@H](CC(N)=O)NC(=O)[C@H](Cc2ccccc2)NC(=O)[C@H](Cc2ccccc2)NC(=O)[C@@H](CCCNC(=N)N)NC(=O)[C@@H]2CCCN2C(=O)[C@H]2CCCN2C(=O)[C@H](Cc2ccccc2)NC1=O [Peptide 3, c[Pro-DArg-Phe-Phe-Asn-Ala-Phe-DPro]]
MC4R antagonist activity in words [5]: did not possess antagonist activity

Compound: C[C@@H]1NC(=O)[C@H](CC(N)=O)NC(=O)[C@@H](Cc2ccccc2)NC(=O)[C@@H](Cc2ccccc2)NC(=O)[C@@H](CCCNC(=N)N)NC(=O)[C@@H]2CCCN2C(=O)[C@H]2CCCN2C(=O)[C@H](Cc2ccccc2)NC1=O [Peptide 9, c[Pro-DArg-DPhe-DPhe-Asn-Ala-Phe-DPro]]
MC3R activity in words [3]: No agonist or antagonist activity was observed
mMC5R percent maximal stimulatory response at 100 μM [4]: 55%
EC50 [1]: 1300 nM
MC4R activity in words [13]: No agonist or antagonist activity was observed
MC4R antagonist activity in words [5]: did not possess antagonist activity

Compound: C[C@@H]1NC(=O)[C@H](CN)NC(=O)[C@@H](Cc2ccccc2)NC(=O)[C@H](Cc2ccccc2)NC(=O)[C@@H](CCCNC(=N)N)NC(=O)[C@@H]2CCCN2C(=O)[C@H]2CCCN2C(=O)[C@H](Cc2ccccc2)NC1=O [Peptide 14, c[Pro-DArg-Phe-DPhe-Dap-Ala-Phe-DPro]]
mMC5R inverse agonist, percent change from basal at 100 μM [4]: 20%
MC5R activity in words [4]: apparent inverse agonist activity
EC50 [1]: 450 nM
EC50 [8]: > 100000 nM
Kb [9]: 2000 nM

Second part, the compound after the results:

EC50 [1]: 800 nM
Compound: C[C@@H]1NC(=O)[C@H](CC(N)=O)NC(=O)[C@@H](Cc2ccccc2)NC(=O)[C@@H](Cc2ccccc2)NC(=O)[C@H](CCCNC(=N)N)NC(=O)[C@@H]2CCCN2C(=O)[C@H]2CCCN2C(=O)[C@H](Cc2ccccc2)NC1=O [Peptide 8, c[Pro-Arg-DPhe-DPhe-Asn-Ala-Phe-DPro]]

mMC3R percent maximal stimulatory response at 100 μM [3]: 35%
MC5R activity in words [4]: full agonist
MC4R antagonist activity in words [5]: did not possess antagonist activity
Compound: C[C@@H]1NC(=O)[C@H](CC(N)=O)NC(=O)[C@@H](Cc2ccccc2)NC(=O)[C@H](Cc2ccccc2)NC(=O)[C@@H](CCCNC(=N)N)NC(=O)[C@@H]2CCCN2C(=O)[C@H]2CCCN2C(=O)[C@H](Cc2ccccc2)NC1=O [Peptide 7, c[Pro-DArg-Phe-DPhe-Asn-Ala-Phe-DPro]]

agonist EC50; cAMP AlphaScreen, HEK293 cells stably expressing mouse MC3R [6]: > 100000 nM
agonist EC50; cAMP AlphaScreen, HEK293 cells stably expressing mouse MC4R [7]: > 100000 nM
Compound: c[Pro-DArg-DPhe-DPhe-Dap-Ala-Phe-DPro] (peptide)

agonist EC50; cAMP AlphaScreen, HEK293 cells stably expressing mouse MC3R [6]: > 100000 nM
agonist EC50; cAMP AlphaScreen, HEK293 cells stably expressing mouse MC4R [7]: > 100000 nM
Compound: c[Pro-DArg-DPhe-Phe-Dap-Ala-Phe-DPro] (peptide)

mMC5R inverse agonist, percent change from basal at 100 μM [4]: 25%
MC5R activity in words [4]: apparent inverse agonist activity
EC50 [1]: 700 nM
Compound: C[C@@H]1NC(=O)[C@H](CC(N)=O)NC(=O)[C@H](Cc2ccccc2)NC(=O)[C@@H](Cc2ccccc2)NC(=O)[C@H](CCCNC(=N)N)NC(=O)[C@@H]2CCCN2C(=O)[C@H]2CCCN2C(=O)[C@H](Cc2ccccc2)NC1=O [Peptide 4, c[Pro-Arg-DPhe-Phe-Asn-Ala-Phe-DPro]]

agonist EC50; cAMP AlphaScreen, HEK293 cells stably expressing mouse MC3R [6]: > 100000 nM
agonist EC50; cAMP AlphaScreen, HEK293 cells stably expressing mouse MC4R [7]: > 100000 nM
agonist EC50; cAMP AlphaScreen, HEK293 cells stably expressing mouse MC5R [10]: > 100000 nM
Compound: c[Pro-Arg-DPhe-DPhe-Dap-Ala-Phe-DPro] (peptide)

MC3R activity in words [3]: No activity was observed
MC5R activity in words [4]: No activity was observed
EC50 [1]: 800 nM
EC50 [8]: > 100000 nM
EC50 [12]: > 100000 nM
Kb [9]: > 3160 nM
Compound: C[C@@H]1NC(=O)[C@H](CN)NC(=O)[C@@H](Cc2ccccc2)NC(=O)[C@H](Cc2ccccc2)NC(=O)[C@H](CCCNC(=N)N)NC(=O)[C@@H]2CCCN2C(=O)[C@H]2CCCN2C(=O)[C@H](Cc2ccccc2)NC1=O [Peptide 12, c[Pro-Arg-Phe-DPhe-Dap-Ala-Phe-DPro]]

MC3R activity in words [3]: No activity was observed
mMC5R percent maximal stimulatory response at 100 μM [4]: 55%
EC50 [1]: 500 nM
MC4R activity in words [13]: No activity was observed
MC4R antagonist activity in words [5]: did not possess antagonist activity
Compound: C[C@@H]1NC(=O)[C@H](CC(N)=O)NC(=O)[C@H](Cc2ccccc2)NC(=O)[C@@H](Cc2ccccc2)NC(=O)[C@@H](CCCNC(=N)N)NC(=O)[C@@H]2CCCN2C(=O)[C@H]2CCCN2C(=O)[C@H](Cc2ccccc2)NC1=O [Peptide 6, c[Pro-DArg-DPhe-Phe-Asn-Ala-Phe-DPro]]

agonist EC50; cAMP AlphaScreen, HEK293 cells stably expressing mouse MC3R [6]: > 100000 nM
agonist EC50; cAMP AlphaScreen, HEK293 cells stably expressing mouse MC4R [7]: > 100000 nM
agonist EC50; cAMP AlphaScreen, HEK293 cells stably expressing mouse MC5R [10]: > 100000 nM
Compound: c[Pro-Arg-Phe-DPhe-Dap-Ala-Phe-DPro] (peptide)

agonist EC50; cAMP AlphaScreen, HEK293 cells stably expressing mouse MC3R [6]: > 100000 nM
agonist EC50; cAMP AlphaScreen, HEK293 cells stably expressing mouse MC4R [7]: > 100000 nM
Compound: c[Pro-DArg-Phe-DPhe-Dap-Ala-Phe-DPro] (peptide)

agonist EC50; cAMP AlphaScreen, HEK293 cells stably expressing mouse MC5R [10]: > 100000 nM
Compound: c[Pro-DArg-Phe-Phe-Dap-Ala-Phe-DPro] (peptide)

agonist EC50; cAMP AlphaScreen, HEK293 cells stably expressing mouse MC3R [6]: > 100000 nM
agonist EC50; cAMP AlphaScreen, HEK293 cells stably expressing mouse MC5R [10]: > 100000 nM
Compound: c[Pro-Arg-DPhe-Phe-Dap-Ala-Phe-DPro] (peptide)
